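These data come from cells grown in 96-well plates and exposed to compound for 48 hours at five concentrations. TGI: concentration producing complete growth inhibition.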
Assays:
Experiment in all cases: NCI-60 cell line screen, 48 h
[1] = system: 786-0 renal
[2] = system: A498 renal
[3] = system: A549 NSCLC
[4] = system: ACHN renal
[5] = system: BT-549 breast
[6] = system: CAKI-1 renal
[7] = system: CCRF-CEM leukemia
[8] = system: COLO 205 colon
[9] = system: DU-145 prostate
[10] = system: EKVX NSCLC
[11] = system: HCC-2998 colon
[12] = system: HCT-116 colon
[13] = system: HCT-15 colon
[14] = system: HL-60(TB) leukemia
[15] = system: HOP-62 NSCLC
[16] = system: HOP-92 NSCLC
[17] = system: HS 578T breast
[18] = system: HT29 colon
[19] = system: IGROV1 ovarian
[20] = system: K-562 leukemia
[21] = system: KM12 colon
[22] = system: LOX IMVI melanoma
[23] = system: M14 melanoma
[24] = system: MCF7 breast
[25] = system: MDA-MB-231 breast
[26] = system: MDA-MB-435
[27] = system: MDA-N
[28] = system: MOLT-4 leukemia
[29] = system: NCI-H226 lung
[30] = system: NCI-H23 lung
[31] = system: NCI-H460 lung
[32] = system: NCI-H522 lung
[33] = system: NCI/ADR-RES ovarian
[34] = system: OVCAR-3 ovarian
[35] = system: OVCAR-4 ovarian
[36] = system: OVCAR-5 ovarian
[37] = system: OVCAR-8 ovarian
[38] = system: PC-3 prostate
[39] = system: RPMI-8226 leukemia
[40] = system: RXF 393 renal
[41] = system: SF-268 CNS
[42] = system: SF-295 CNS
[43] = system: SF-539 CNS
[44] = system: SK-MEL-2 melanoma
[45] = system: SK-MEL-28 melanoma
[46] = system: SK-MEL-5 melanoma
[47] = system: SK-OV-3 ovarian
[48] = system: SN12C renal
[49] = system: SNB-19 CNS
[50] = system: SNB-75 CNS
[51] = system: SR leukemia
[52] = system: SW-620 colon
[53] = system: T-47D breast
[54] = system: TK-10 renal
[55] = system: U251 CNS
[56] = system: UACC-257 melanoma
[57] = system: UACC-62 melanoma
[58] = system: UO-31 renal
[59] = system: MALME-3M melanoma

## CCCCCCCCCCCCCCC(C(=O)[O-])[n+]1ccccc1 (stereo unspecified)
[1]
  TGI: > 100 µM
[2]
  TGI: > 100 µM
[3]
  TGI: > 100 µM
[4]
  TGI: > 100 µM
[5]
  TGI: > 100 µM
[6]
  TGI: > 100 µM
[7]
  TGI: > 100 µM
[8]
  TGI: > 100 µM
[9]
  TGI: > 100 µM
[10]
  TGI: > 100 µM
[11]
  TGI: > 100 µM
[12]
  TGI: > 100 µM
[13]
  TGI: > 100 µM
[14]
  TGI: > 100 µM
[15]
  TGI: > 100 µM
[16]
  TGI: > 100 µM
[17]
  TGI: > 100 µM
[18]
  TGI: > 100 µM
[19]
  TGI: > 100 µM
[20]
  TGI: > 100 µM
[21]
  TGI: > 100 µM
[22]
  TGI: > 100 µM
[23]
  TGI: > 100 µM
[24]
  TGI: 50.9 µM
[25]
  TGI: > 100 µM
[26]
  TGI: > 100 µM
[27]
  TGI: > 100 µM
[28]
  TGI: > 100 µM
[29]
  TGI: > 100 µM
[30]
  TGI: > 100 µM
[31]
  TGI: > 100 µM
[32]
  TGI: > 100 µM
[33]
  TGI: > 100 µM
[34]
  TGI: > 100 µM
[35]
  TGI: > 100 µM
[36]
  TGI: > 100 µM
[37]
  TGI: > 100 µM
[38]
  TGI: 77.6 µM
[39]
  TGI: > 100 µM
[40]
  TGI: 74.7 µM
[41]
  TGI: > 100 µM
[42]
  TGI: > 100 µM
[43]
  TGI: > 100 µM
[44]
  TGI: > 100 µM
[45]
  TGI: > 100 µM
[46]
  TGI: > 100 µM
[47]
  TGI: > 100 µM
[48]
  TGI: > 100 µM
[49]
  TGI: > 100 µM
[50]
  TGI: > 100 µM
[51]
  TGI: > 100 µM
[52]
  TGI: > 100 µM
[53]
  TGI: > 100 µM
[54]
  TGI: 28.8 µM
[55]
  TGI: > 100 µM
[56]
  TGI: > 100 µM
[57]
  TGI: > 100 µM
[58]
  TGI: > 100 µM

## Cc1cc2nn(C3CCCCO3)nc2cc1C (stereo unspecified)
[1]
  TGI: > 100 µM
[2]
  TGI: > 100 µM
[3]
  TGI: > 100 µM
[4]
  TGI: > 100 µM
[5]
  TGI: > 100 µM
[6]
  TGI: > 100 µM
[7]
  TGI: > 100 µM
[8]
  TGI: > 100 µM
[9]
  TGI: > 100 µM
[10]
  TGI: > 100 µM
[11]
  TGI: > 100 µM
[12]
  TGI: > 100 µM
[13]
  TGI: > 100 µM
[15]
  TGI: > 100 µM
[17]
  TGI: > 100 µM
[18]
  TGI: > 100 µM
[19]
  TGI: > 100 µM
[20]
  TGI: > 100 µM
[21]
  TGI: > 100 µM
[23]
  TGI: > 100 µM
[59]
  TGI: > 100 µM
[24]
  TGI: > 100 µM
[25]
  TGI: > 100 µM
[26]
  TGI: > 100 µM
[27]
  TGI: > 100 µM
[28]
  TGI: > 100 µM
[29]
  TGI: > 100 µM
[30]
  TGI: > 100 µM
[31]
  TGI: > 100 µM
[32]
  TGI: > 100 µM
[33]
  TGI: > 100 µM
[34]
  TGI: > 100 µM
[35]
  TGI: > 100 µM
[36]
  TGI: > 100 µM
[37]
  TGI: > 100 µM
[38]
  TGI: > 100 µM
[40]
  TGI: > 100 µM
[41]
  TGI: > 100 µM
[42]
  TGI: > 100 µM
[43]
  TGI: > 100 µM
[44]
  TGI: > 100 µM
[46]
  TGI: > 100 µM
[47]
  TGI: > 100 µM
[48]
  TGI: > 100 µM
[49]
  TGI: > 100 µM
[50]
  TGI: > 100 µM
[51]
  TGI: > 100 µM
[53]
  TGI: > 100 µM
[54]
  TGI: > 100 µM
[55]
  TGI: > 100 µM
[56]
  TGI: > 100 µM
[57]
  TGI: > 100 µM
[58]
  TGI: > 100 µM

Reference: PubChem BioAssay (NCI)
